Measurements taken from EP2323645B1, “USE OF LOW-DOSE LOCAL ANAESTHETIC OR DERIVATIVES THEREOF FOR THERAPY OF CHRONIC PAIN, ESPECIALLY MIGRAINE” (priority 2008, dated 2010).

Test system: therapieresistenter chronischer Sensibilitätsstörungen an Armen und Händen mit Verlust der rohen Kraft
Assay: Treatment of therapy-resistant chronic sensory disturbances of arms and hands with loss of strength
Type: in vivo, Patienten

Q: For `CCN(CC)CC(=O)Nc1c(C)cccc1C` [Lidocain], which “Remission der Kraftlosigkeit” value (2 to 4 deep paravertebral injections, middle or lower cervical spine, 0,1 Gew.-%) is on record?
A: Spontane Remission

Q: What about the “Remission der Sensibilitätsstörungen” value (after further identical treatment sessions) of the same compound?
A: vollständig nach zwei bis vier weiteren identisch reproduzierten Behandlungssitzungen
